Data published in patent US6667413B2, “Uracil compounds and use thereof” (Sumitomo Chemical Company, Limited, priority 1999, dated 2003).

Assays:
Type in all cases: in vivo
[1] = system: Ivyleaf morningglory (Ipomoea hederacea); assay: Test Example 1: foliar treatment, herbicidal activity; conditions: foliar spray, 125 g/ha, 7 days after application
Procedure: (§1) A cylindrical plastic pot having a diameter of 10 cm and a depth of 10 cm was filled with soil and then seeded with Ivyleaf morningglory (Ipomoea hederacea), velvetleaf (Abutilon theophrasti), barnyardgrass (Echinochloa crus-galli) and blackgrass (Alopecurus myosuroides). These test plants were grown in a greenhouse for 9 days. Then, each of compounds 1-1,2-1, 3-1,3-2, 3-11 and 3-12 was formulated into an emulsifiable concentrate according to Formulation Example 2 and then diluted to the prescribed amount with water containing a spreading agent and the dilution was uniformly sprayed over the foliage of the test plants with a sprayer at a rate of 1000 liters per hectare After the application, the test plants were grown in the greenhouse for 7 days, and the herbicidal activity of the applied composition was determined.

[2] = system: barnyardgrass (Echinochloa crus-galli); assay: as above; conditions: foliar spray, 125 g/ha, 7 days after application
Procedure: as §1

[3] = system: blackgrass (Alopecurus myosuroides); assay: as above; conditions: foliar spray, 125 g/ha, 7 days after application
Procedure: as §1

[4] = system: velvetleaf (Abutilon theophrasti); assay: as above; conditions: foliar spray, 125 g/ha, 7 days after application
Procedure: as §1

[5] = system: Ivyleaf morningglory (Ipomoea hederacea); assay: Test Example 4: soil surface treatment, herbicidal activity; conditions: sprayed over the surface of the soil, 2000 g/ha, 7 days after application
Description: (§2) A cylindrical plastic pot having a diameter of 10 cm and a depth of 10 cm was filled with soil and then seeded with Ivyleaf morningglory (Ipomoea hederacea), velvetleaf (Abutilon theophrasti), barnyardgrass (Echinochloa crus-galli) and blackgrass (Alopecurus myosuroides). Then, each of the compounds 3-2,3-11, 3-12, 3-16, 3-20 and 3-198 was formulated into an emulsifiable concentrate according to Formulation Example 2 and then diluted to the prescribed amount with water, and the dilution was uniformly sprayed over the surface of the soil with a sprayer at a rate of 1000 liters per hectare. After the application, the test plants were grown in the greenhouse for 7 days, and the herbicidal activity of the applied composition was examined.

[6] = system: barnyardgrass (Echinochloa crus-galli); assay: as above; conditions: sprayed over the surface of the soil, 2000 g/ha, 7 days after application
Description: as §2

[7] = system: blackgrass (Alopecurus myosuroides); assay: as above; conditions: sprayed over the surface of the soil, 2000 g/ha, 7 days after application
Description: as §2

[8] = system: velvetleaf (Abutilon theophrasti); assay: as above; conditions: sprayed over the surface of the soil, 2000 g/ha, 7 days after application
Description: as §2

CCOC(=O)C(C)Oc1ccccc1Oc1cc(-n2c(=O)cc(C(F)(F)F)n(C)c2=O)c(F)cc1Cl (stereo not shown) [Compound 3-2, Ethyl 2-[2-{2-chloro-4-fluoro-5-[3-methyl-2,6-dioxo-4-(trifluoromethyl)-1,2,3,6-tetrahydropyrimidin-1-yl]phenoxy}phenoxy]propionate]
completely controlled: growth of Ivyleaf morningglory [1] | growth of barnyardgrass [2] | growth of blackgrass [3] | growth of velvetleaf [4] | emergence of Ivyleaf morningglory [5] | emergence of barnyardgrass [6] | emergence of blackgrass [7] | emergence of velvetleaf [8]

CCOC(=O)COc1ccccc1Oc1cc(-n2c(=O)cc(C(F)(F)F)n(C)c2=O)c(F)cc1Cl [Compound 3-12, Ethyl [2-{2-chloro-4-fluoro-5-[3-methyl-2,6-dioxo-4-(trifluoromethyl)-1,2,3,6-tetrahydropyrimidin-1-yl]phenoxy}phenoxy]acetate]
completely controlled: growth of Ivyleaf morningglory [1] | growth of barnyardgrass [2] | growth of blackgrass [3] | growth of velvetleaf [4] | emergence of Ivyleaf morningglory [5] | emergence of barnyardgrass [6] | emergence of blackgrass [7] | emergence of velvetleaf [8]
